The source of these data is ChEMBL document CHEMBL1136506, “Solid-phase synthesis of cyclic RGD-furanoid sugar amino acid peptides as integrin inhibitors” (Bioorg Med Chem Lett, 2003).

The target in experiment [1] is T1, Integrin alpha-IIb/beta-3 (Homo sapiens, UniProt P05106+P08514). Description: Displacement of [125I]echistatin from alphaIIb-beta3 integrin of human platelets. For orientation: Displacement assays read how much labelled ligand stays bound in the presence of the test substance.
The target in experiment [2] is T2, Integrin alpha-V/beta-3 (Homo sapiens, UniProt P05106+P06756). The experiment is described as follows: Displacement of [125I]echistatin from alphaV-beta3 integrin of human skin fibroblasts. Format: protein-complex assay.
Experiment [3] deals with T1, Integrin alpha-IIb/beta-3. The experiment is described as follows: Displacement of [125I]echistatin from alphaIIb-beta3 integrin of human platelets at 1 mM (Inactive).
The target of experiment [4] is T2, Integrin alpha-V/beta-3. The experiment is described as follows: Displacement of [125I]-echistatin from alphaV-beta3 integrin of human skin fibroblasts at 1 mM (Inactive). Format: protein-complex assay.

Numbered stars: 1 amine (or outer) side, 2 acyl side, 3 side chain; on linkers, the order of the positions; unused ones are H or OH. Square brackets hold non-standard residues; d marks the D form. Peptide text beside a SMILES is read from it. X1 = O=C(C[C@@H]1O[C@H](CN[*:1])[C@@H](O)[C@H]1O)[*:2]

T1 sequence (P05106 27-788 limits assumed): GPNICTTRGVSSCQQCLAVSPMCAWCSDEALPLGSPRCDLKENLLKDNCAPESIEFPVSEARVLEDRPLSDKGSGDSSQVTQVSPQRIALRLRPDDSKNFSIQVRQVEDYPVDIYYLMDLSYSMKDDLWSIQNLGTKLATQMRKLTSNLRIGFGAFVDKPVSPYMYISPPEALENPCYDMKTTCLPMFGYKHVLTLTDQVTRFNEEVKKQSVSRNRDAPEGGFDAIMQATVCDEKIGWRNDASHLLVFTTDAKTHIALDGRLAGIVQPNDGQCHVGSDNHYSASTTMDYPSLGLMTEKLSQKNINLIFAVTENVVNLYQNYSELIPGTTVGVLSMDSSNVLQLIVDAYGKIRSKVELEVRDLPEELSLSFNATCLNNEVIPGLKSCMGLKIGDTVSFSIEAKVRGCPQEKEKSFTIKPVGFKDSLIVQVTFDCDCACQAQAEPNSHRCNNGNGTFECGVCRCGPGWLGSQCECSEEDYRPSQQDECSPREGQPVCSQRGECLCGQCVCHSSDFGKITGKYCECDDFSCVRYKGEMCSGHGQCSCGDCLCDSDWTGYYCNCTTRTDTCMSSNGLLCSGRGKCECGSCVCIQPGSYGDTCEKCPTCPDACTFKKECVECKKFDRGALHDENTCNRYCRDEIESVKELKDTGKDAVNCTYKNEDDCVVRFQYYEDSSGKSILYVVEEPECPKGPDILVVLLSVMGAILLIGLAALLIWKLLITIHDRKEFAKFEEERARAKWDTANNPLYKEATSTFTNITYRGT
T1 sequence (P08514 32-887 limits assumed): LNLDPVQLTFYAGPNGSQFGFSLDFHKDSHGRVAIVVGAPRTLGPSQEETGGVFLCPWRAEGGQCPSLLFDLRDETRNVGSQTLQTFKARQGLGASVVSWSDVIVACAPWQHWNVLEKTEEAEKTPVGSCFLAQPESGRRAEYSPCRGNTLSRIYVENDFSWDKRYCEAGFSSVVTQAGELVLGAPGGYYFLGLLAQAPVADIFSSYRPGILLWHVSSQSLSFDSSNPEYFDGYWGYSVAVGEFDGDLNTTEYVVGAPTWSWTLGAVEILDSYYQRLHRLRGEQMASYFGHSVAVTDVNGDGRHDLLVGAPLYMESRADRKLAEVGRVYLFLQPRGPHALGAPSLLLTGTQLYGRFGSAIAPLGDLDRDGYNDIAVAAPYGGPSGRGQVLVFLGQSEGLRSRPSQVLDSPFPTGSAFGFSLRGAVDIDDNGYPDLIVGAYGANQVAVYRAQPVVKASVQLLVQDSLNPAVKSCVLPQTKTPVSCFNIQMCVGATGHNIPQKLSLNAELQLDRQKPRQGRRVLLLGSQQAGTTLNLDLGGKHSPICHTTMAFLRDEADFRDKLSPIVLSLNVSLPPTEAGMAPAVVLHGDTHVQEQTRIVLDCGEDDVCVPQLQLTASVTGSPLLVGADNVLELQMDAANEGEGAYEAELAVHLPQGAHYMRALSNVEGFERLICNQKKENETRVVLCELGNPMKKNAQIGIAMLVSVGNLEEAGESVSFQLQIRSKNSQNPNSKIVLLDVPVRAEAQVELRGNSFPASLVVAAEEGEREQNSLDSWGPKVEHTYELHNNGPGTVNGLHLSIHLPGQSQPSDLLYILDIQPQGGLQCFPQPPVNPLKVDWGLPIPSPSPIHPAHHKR
T1 sequence (P08514 891-1039 limits assumed): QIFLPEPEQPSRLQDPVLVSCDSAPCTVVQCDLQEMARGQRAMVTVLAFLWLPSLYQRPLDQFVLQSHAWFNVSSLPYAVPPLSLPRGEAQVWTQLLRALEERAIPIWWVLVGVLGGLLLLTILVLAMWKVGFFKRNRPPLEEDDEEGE
T2 sequence (P05106 27-788 limits assumed): as the sequence (P05106 27-788 limits assumed) above
T2 sequence (P06756 31-889 limits assumed): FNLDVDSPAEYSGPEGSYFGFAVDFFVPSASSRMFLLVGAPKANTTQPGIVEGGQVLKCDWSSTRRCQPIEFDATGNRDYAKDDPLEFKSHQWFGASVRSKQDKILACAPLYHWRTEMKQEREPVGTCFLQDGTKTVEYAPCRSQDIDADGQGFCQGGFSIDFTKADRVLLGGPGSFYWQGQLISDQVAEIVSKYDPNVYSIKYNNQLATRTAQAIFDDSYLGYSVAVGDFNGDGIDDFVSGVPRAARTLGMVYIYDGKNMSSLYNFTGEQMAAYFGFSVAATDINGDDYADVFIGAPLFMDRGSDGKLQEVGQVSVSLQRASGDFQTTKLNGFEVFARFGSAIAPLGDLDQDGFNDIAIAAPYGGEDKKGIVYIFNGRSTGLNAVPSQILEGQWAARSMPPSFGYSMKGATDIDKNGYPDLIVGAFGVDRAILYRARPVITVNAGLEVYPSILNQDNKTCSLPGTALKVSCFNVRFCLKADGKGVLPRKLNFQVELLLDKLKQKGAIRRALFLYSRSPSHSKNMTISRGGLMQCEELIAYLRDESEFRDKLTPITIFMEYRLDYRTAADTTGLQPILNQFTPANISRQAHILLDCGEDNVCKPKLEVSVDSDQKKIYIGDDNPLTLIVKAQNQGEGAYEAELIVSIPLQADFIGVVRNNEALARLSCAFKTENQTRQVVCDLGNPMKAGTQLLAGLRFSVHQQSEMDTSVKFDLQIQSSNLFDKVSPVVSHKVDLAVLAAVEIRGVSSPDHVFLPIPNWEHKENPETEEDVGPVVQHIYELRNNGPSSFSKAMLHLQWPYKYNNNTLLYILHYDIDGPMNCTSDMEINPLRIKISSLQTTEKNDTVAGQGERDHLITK
T2 sequence (P06756 891-1048 limits assumed): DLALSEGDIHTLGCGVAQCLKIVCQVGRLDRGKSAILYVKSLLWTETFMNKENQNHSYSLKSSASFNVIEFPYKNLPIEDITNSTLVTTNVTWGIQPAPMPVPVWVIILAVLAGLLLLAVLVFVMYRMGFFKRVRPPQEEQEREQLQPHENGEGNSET

In general, IC50 refers to the midpoint of a concentration-inhibition curve. Higher therefore signals a need for much substance. Turning to `N=C(N)NCCC[C@@H]1NC(=O)C[C@@H]2O[C@H](CNC(=O)[C@H](CC(=O)O)NC(=O)CNC1=O)[C@@H](O)[C@H]2O`, the IC50 in experiment [1] is 0.384 µM; in experiment [2] it was 1.49 µM.
For `CC(C)[C@@H]1NC(=O)CNC(=O)C[C@@H]2O[C@H](CNC(=O)[C@H](CCCN=C(N)N)NC(=O)[C@H](CC(=O)O)NC1=O)[C@@H](O)[C@H]2O` (cyclo(DR[X1]GV)), the IC50 entry in experiment [3] and in experiment [4] was “Not Active” throughout.
For `N=C(N)NCCCC1NC(=O)C[C@@H]2O[C@H](CNC(=O)C(CC(=O)O)NC(=O)C[C@@H]3O[C@H](CNC1=O)[C@@H](O)[C@H]3O)[C@@H](O)[C@H]2O` (stereo not given in full), the IC50 result in experiment [3] and in experiment [4] was “Not Active” each time.
Consider `CC(C)[C@@H]1NC(=O)[C@H](CC(=O)O)NC(=O)CNC(=O)[C@H](CCCN=C(N)N)NC(=O)C[C@@H]2O[C@H](CNC1=O)[C@@H](O)[C@H]2O` (cyclo(RGDV[X1])), for which the half-inhibitory concentration (IC50) was 32.2 µM in experiment [1] and 98.1 µM in experiment [2].
Turning to `N=C(N)NCCCC1NC(=O)C[C@@H]2O[C@H](CNC(=O)C[C@@H]3O[C@H](CNC(=O)C(CC(=O)O)NC(=O)CNC1=O)[C@@H](O)[C@H]3O)[C@@H](O)[C@H]2O` (stereo not given in full), the results for the IC50 in experiment [1] and in experiment [2] were 198 µM and 597 µM, respectively.
